Measurements as given in PMC11172478, “1,3,5-Triazine as Branching Connector for the Construction of Novel Antimicrobial Peptide Dendrimers: Synthesis and Biological Characterization” (International Journal of Molecular Sciences, 2024).
Converted amounts (≈) assume the structure as drawn. Starred links: 1 amine or outer side, 2 acyl side, 3 side chain; linkers in the order of their positions; H or OH if unused. Positions of bridges follow the written chain, without caps; N, C: chain ends. Residues, ends and D or L forms follow the SMILES beside them. Chains are numbered I, II in the order given. X1 = O=C(c1ccc(Oc2nc(NCCN[*:2])nc(NCCN[*:3])n2)cc1)[*:1]

Columns and labels:
[1] = system: E. coli ATCC 25922; type: cell-based; details: broth microdilution, MHBCA, 24 h, 37 °C, visual turbidity
Description: (§1) The antimicrobial activity of the dendrimers was evaluated against E. coli ATCC 25922, P. aeruginosa ATCC 27853 and S. aureus ATCC 29213 strains. The MIC values were determined by the broth microdilution method. Briefly, the different strains were grown in Muller Hinton broth cation adjusted (MHBCA) medium overnight at 37 °C with shaking at 200 rpm. The bacterial cultures were then adjusted to OD625nm of 0.08–0.1, and 5 μL of each diluted suspension was added to 96-well plates previously filled with MHBCA and serially diluted peptides. Plates were incubated for 24 h at 37 °C. Finally, the MIC was determined macroscopically, based on the visual turbidity of the wells.

[2] = system: P. aeruginosa ATCC 27853; type: cell-based; details: broth microdilution, MHBCA, 24 h, 37 °C, visual turbidity
Description: as §1

[3] = system: S. aureus ATCC 29213; type: cell-based; details: ATCC 29213, 24 h
Description: as §1

[4] = system: E. coli 13974; test: microbe, parasite or virus in culture; type: cell-based; details: 13974, 24 h
Description: (§2) E. coli ATCC 25922, P. aeruginosa ATCC 27853, S. aureus ATCC 29213, P. aeruginosa 666 SJD (ciprofloxacin-resistant), P. aeruginosa P12, P13, P15, P16 and P17 (MDR isolates) and E. coli 7987, 5545, 8248, 13974, 7259 and 208691 (MDR isolates) from our own collection were included in the present study.
as §1

[5] = system: E. coli 208691; test: microbe, parasite or virus in culture; type: cell-based; details: 208691, 24 h
Description: as §2, §1

[6] = system: E. coli 5545; test: microbe, parasite or virus in culture; type: cell-based; details: 5545, 24 h
Description: as §2, §1

[7] = system: E. coli 7259; test: microbe, parasite or virus in culture; type: cell-based; details: 7259, 24 h
Description: as §2, §1

[8] = system: E. coli 7987; test: microbe, parasite or virus in culture; type: cell-based; details: 7987, 24 h
Description: as §2, §1

[9] = system: E. coli 8248; test: microbe, parasite or virus in culture; type: cell-based; details: 8248, 24 h
Description: as §2, §1

[10] = system: P. aeruginosa P12; test: microbe, parasite or virus in culture; type: cell-based; details: P12, 24 h
Description: as §2, §1

[11] = system: P. aeruginosa P13; test: microbe, parasite or virus in culture; type: cell-based; details: P13, 24 h
Description: as §2, §1

[12] = system: P. aeruginosa P15; test: microbe, parasite or virus in culture; type: cell-based; details: P15, 24 h
Description: as §2, §1

[13] = system: P. aeruginosa P16; test: microbe, parasite or virus in culture; type: cell-based; details: P16, 24 h
Description: as §2, §1

[14] = system: P. aeruginosa P17; test: microbe, parasite or virus in culture; type: cell-based; details: P17, 24 h
Description: as §2, §1

[15] = system: L-929 fibroblasts; test: Cytotoxicity, resazurin reduction; type: cell-based, murine; details: L-929 cells, 24 h, resazurin fluorescence
Description: (§3) The cytotoxicity assay was performed in the human hepatocellular carcinoma cell line Hep G2 ATCC and murine L-929 fibroblasts (NCTC clone 929, ECACC 88102702) obtained from the laboratory of Dr. Pérez-Tomás (Cancer Cell Biology, University of Barcelona). The cytotoxicity of the selected peptides was determined by measuring the intracellular reduction of resazurin sodium salt (Sigma-Aldrich, St. Louis, MO, USA). Briefly, HepG2 and L-929 cells were grown in RPMI 1640 or MEM medium, respectively (Biochrom AG, Berlin, Germany), supplemented with 10% fetal bovine serum. Cells from pre-confluent cultures were harvested with trypsin-EDTA and maintained at 37 °C in 5% CO2. Then, 100 µL of each cell line was seeded into 96-well flat-bottomed microplates and incubated for 24 h at 37 °C. The medium was then replaced with 200 μL of medium containing the dendrimers at concentrations ranging from 64 to 0.125 μg/mL and the microplates were incubated for 24 h at 37 °C. Next, 20 μL of resazurin was added to each well and the plates were incubated under the same conditions for 24 h. Fluorescence was measured using a multiwell scanning spectrophotometer at an excitation wavelength of 530 nm and an emission wavelength of 590 nm. Cytotoxicity was then calculated by comparing the fluorescence of the treated and untreated cells (Figure S22).

[16] = system: Hep G2 hepatocellular carcinoma cell line; test: Cytotoxicity, resazurin reduction; type: cell-based, human; details: HepG2 cells, 24 h, resazurin fluorescence
Description: as §3

[17] = system: E. coli ATCC 25922; type: cell-based; details: for effect on growth curve (in words): E. coli ATCC 25922, TSB, MIC, ½ MIC and ¼ MIC, 37 °C, OD 850 nm
Description: (§4) The real-time effect of the peptide dendrimers was examined on the growth curves of E. coli ATCC 25922 and P. aeruginosa ATCC 27853. Volumes of 10 mL of TSB liquid cultures containing 1–5 × 10^5 CFU/mL in the logarithmic phase were adjusted in Falcon tubes. Peptide dendrimers were then added at MIC and sub-inhibitory concentrations (½ MIC and ¼ MIC). Incubation was performed in RTS-1C real-time reverse spin bioreactors RTS-1 (Biosan) for 24 h at 37 °C and 2000 rpm. Growth was measured noninvasively as optical density (OD 850 nm) every 15 min.

[18] = system: P. aeruginosa ATCC 27853; test: Bacterial growth curves; type: cell-based; details: P. aeruginosa ATCC 27853, TSB, MIC, ½ MIC and ¼ MIC, 24 h, 37 °C, OD 850 nm
Description: as §4

[19] = Black lipid bilayers conductance; details: DiPhPC/PS 4:1 in n-decane, 1 M KCl, −80, −120 and −180 mV
Description: The basic methods have been described previously. Membranes were prepared from 1% lipid a mixture of di-phytanoyl-phosphatidylcholine/di-phytanoylphosphatidylserine (DiPhPC/PS) in a molar ratio of 4:1 in n-decane (Avanti Polar Lipids, Delfzyl, The Netherlands). Bilayers were painted over a 2 mm^2 hole in a Teflon divider separating two compartments containing 5 mL each of a bathing solution of 1MKCl. Voltages were applied across the membrane via calomel electrodes connected by a salt bridge. The resultant current was amplified 10^8-fold by a current amplifier and recorded on a Rikadenski chart recorder. A concentration of 1 μg/mL of the dendrimer was used based on the results of Wu et al..

| Compound | MIC E. coli ATCC 25922 [1] [µg/mL] | MIC P. aeruginosa ATCC 27853 [2] [µg/mL] | MIC S. aureus ATCC 29213 [3] [µg/mL] | MIC [4] [µg/mL] | MIC [5] [µg/mL] | MIC [6] [µg/mL] | MIC [7] [µg/mL] | MIC [8] [µg/mL] | MIC [9] [µg/mL] | MIC [10] [µg/mL] | MIC [11] [µg/mL] | MIC [12] [µg/mL] | MIC [13] [µg/mL] | MIC [14] [µg/mL] | % Cytotoxicity at 64µg/mL, L-929 [15] [%] | % Cytotoxicity at 64µg/mL, HepG2 [16] [%] | effect on growth curve (in words) ([17]; 24 h) | effect on growth curve (in words) [18] | channel formation in planar lipid bilayers (conductance) [19] | further results |
| --- | --- | --- | --- | --- | --- | --- | --- | --- | --- | --- | --- | --- | --- | --- | --- | --- | --- | --- | --- | --- |
| CC(C)C[C@H](NC(=O)c1ccc(Oc2nc(NCCNC(=O)[C@H](CCCCN)NC(=O)[C@H](CC(C)C)NC(=O)[C@H](CCCCN)NC(=O)[C@H](CC(C)C)NC(=O)[C@H](CCCCN)NC(=O)[C@@H](N)CC(C)C)nc(NCCNC(=O)[C@H](CCCCN)NC(=O)[C@H](CC(C)C)NC(=O)[C@H](CCCCN)NC(=O)[C@H](CC(C)C)NC(=O)[C@H](CCCCN)NC(=O)[C@@H](N)CC(C)C)n2)cc1)C(=O)N[C@@H](CCCCN)C(=O)N[C@@H](CC(C)C)C(=O)N[C@@H](CCCCN)C(=O)N[C@@H](CC(C)C)C(=O)N[C@@H](CCCCN)C(N)=O [Dendrimer 1, H-[(LK)3]2-(EDA)2-TA-PHBA-(LK)3-NH2] (I: LKLKLK-NH2 / II: H-LKLKLK / III: H-LKLKLK; linker I:N-II:C-III:C via X1) | 8 (≈ 3.19 µM) | 16 (≈ 6.39 µM) | >64 | 8 (≈ 3.19 µM) | 32 (≈ 12.8 µM) | 8 (≈ 3.19 µM) | 32 (≈ 12.8 µM) | 8 (≈ 3.19 µM) | 8 (≈ 3.19 µM) | >128 | 64 (≈ 25.6 µM) | >128 | 64 (≈ 25.6 µM) | 16 (≈ 6.39 µM) | 2.8 | 0 | fully inhibited growth at the three concentrations tested | noticeable growth delay | did not induce membrane channels | MIC value deduced from microfermentor experiments ([17]; ATCC 25922, 24 h): < 2 µg/mL; concentration that completely inhibited detectable growth ([17]; E. coli ATCC 25922, growth curves, 24 h): 2 µg/mL |
| CC(C)C[C@H](NC(=O)[C@H](CCCCN)NC(=O)[C@H](CC(C)C)NC(=O)[C@H](CCCCN)NC(=O)[C@H](CC(C)C)Nc1nc(NCCNC(=O)[C@H](CCCCN)NC(=O)[C@H](CC(C)C)NC(=O)[C@H](CCCCN)NC(=O)[C@H](CC(C)C)NC(=O)[C@H](CCCCN)NC(=O)[C@@H](N)CC(C)C)nc(NCCNC(=O)[C@H](CCCCN)NC(=O)[C@H](CC(C)C)NC(=O)[C@H](CCCCN)NC(=O)[C@H](CC(C)C)NC(=O)[C@H](CCCCN)NC(=O)[C@@H](N)CC(C)C)n1)C(=O)N[C@@H](CCCCN)C(N)=O [Dendrimer 2, H-[(LK)3-EDA]2-TA-(LK)3-NH2] | 2 (≈ 0.839 µM) | 16 (≈ 6.71 µM) | >64 | 8 (≈ 3.36 µM) | 8 (≈ 3.36 µM) | 8 (≈ 3.36 µM) | 2 (≈ 0.839 µM) | 4 (≈ 1.68 µM) | 8 (≈ 3.36 µM) | 32 (≈ 13.4 µM) | 32 (≈ 13.4 µM) | 16 (≈ 6.71 µM) | 32 (≈ 13.4 µM) | 16 (≈ 6.71 µM) | 0 | 0 | full growth inhibition only at the MIC | complete growth inhibition occurred at the MIC | did not induce membrane channels | – |
